In brackets after ≈: the same amount, converted by molar mass. Activity calls are given as the source filed them. The calls are words filed in the database; no cut-off is given here.
Legend:
[1] = molecular target: NACHT, LRR and PYD domains-containing protein 3 (Mus musculus, UniProt Q8R4B8); test: Binding affinity to CMS sensor chip immobilized His-SUMO-tagged mouse NLRP3 expressed in Escherichia coli assessed as dissociation constant by SPR analysis
Peritoneal macrophage [2] = test: Antiinflammatory activity against LPS-stimulated mouse peritoneal macrophage assessed as inhibition of IL-1beta secretion treated for 3 hrs followed by ATP addition measured after 30 mins by ELISA method; format: functional, cell-based
Peritoneal macrophage [3] = test: Antiinflammatory activity against LPS-stimulated mouse peritoneal macrophage assessed as IL-1beta level at 2 uM treated for 3 hrs followed by ATP addition measured after 30 mins by ELISA method relative to control; format: functional; settings: time 3.5 hrs
[4] = Metabolic stability in mouse liver microsomes assessed as half life at 20 uM measured upto 120 mins in presence of NADPH by LC-MS/MS analysis; format: ADME, Microsome
[5] = Metabolic stability in human liver microsomes assessed as half life at 20 uM measured upto 120 mins in presence of NADPH by LC-MS/MS analysis; format: ADME, Microsome
Peritoneal macrophage [6] = test: Cytotoxicity against mouse peritoneal macrophages at 4 uM incubated for 3.5 hrs by MTT assay; format: toxicity, cell-based
[7] = Aqueous solubility of compound incubated for 24 hrs by HPLC analysis; format: physicochemical; settings: buffer
[8] = Metabolic stability in human liver microsomes assessed as intrinsic clearance at 20 uM measured upto 120 mins in presence of NADPH by LC-MS/MS analysis; format: ADME, Microsome; settings: read-out: CLH
[9] = Metabolic stability in mouse liver microsomes assessed as intrinsic clearance at 20 uM measured upto 120 mins in presence of NADPH by LC-MS/MS analysis; format: ADME, Microsome; settings: read-out: CLH
Peritoneal macrophage [10] = test: Antiinflammatory activity against LPS-stimulated mouse peritoneal macrophage assessed as TNF-alpha level at 2 uM treated for 3 hrs followed by ATP addition measured after 30 mins by ELISA method relative to control; format: functional; settings: time 3.5 hrs
Peritoneal macrophage [11] = test: Effect on pro-caspase-1 expression in ATP-induced LPS-primed mouse peritoneal macrophage cells at 2 uM treated for 3 hrs followed by ATP addition measured after 30 mins by Western blot analysis; format: functional, cell-based; settings: time 3.5 hrs
Peritoneal macrophage [12] = test: Antiinflammatory activity against LPS-stimulated mouse peritoneal macrophage assessed as inhibition of IL-1beta secretion at 1 uM treated for 3 hrs followed by ATP addition measured after 30 mins by ELISA method; format: functional, cell-based; settings: time 3.5 hrs
[13] = molecular target: NACHT, LRR and PYD domains-containing protein 3 (Mus musculus) (UniProt Q8R4B8); test: Inhibition of NLRP3 inflammasome activation in […] LPS-primed mouse peritoneal macrophage cells assessed as inhibition of IL-1beta secretion at 2 uM treated for 3 hrs followed by MSU addition measured after 30 mins by ELISA method; format: cell-based; settings: time 3.5 hrs
[14] = molecular target: NACHT, LRR and PYD domains-containing protein 3 (Mus musculus) (UniProt Q8R4B8); test: Inhibition of NLRP3 inflammasome activation in LPS-stimulated mouse peritoneal macrophage assessed as inhibition of IL-1beta secretion at 2 uM treated for 3 hrs followed by ATP addition measured after 30 mins by Western blot analysis relative to control; format: cell-based; settings: time 3.5 hrs
Mus musculus [15] = test: Antiinflammatory activity in septic C57BL/6 mouse model assessed as reduction in LPS-induced granulocyte count at 50 mg/kg, ip pretreated for 42 hrs followed by LPS injection measured after 6 hrs by H and E staining based analysis; format: functional, organism-based; settings: time 48.0 hrs
[16] = molecular target: NACHT, LRR and PYD domains-containing protein 3 (Mus musculus) (UniProt Q8R4B8); test: Inhibition of NLRP3 inflammasome activation in ATP-induced LPS-primed mouse BMDM cells assessed as inhibition of IL-1beta secretion at 1 uM treated for 3 hrs followed by ATP addition measured after 30 mins by ELISA method; format: cell-based; settings: time 3.5 hrs
[17] = molecular target: NACHT, LRR and PYD domains-containing protein 3 (Mus musculus) (UniProt Q8R4B8); test: Inhibition of NLRP3 inflammasome activation in […] LPS-primed mouse peritoneal macrophage cells assessed as inhibition of IL-1beta secretion at 2 uM treated for 3 hrs followed by nigericin addition measured after 30 mins by ELISA method; format: cell-based; settings: time 3.5 hrs
[18] = molecular target: NACHT, LRR and PYD domains-containing protein 3 (Mus musculus) (UniProt Q8R4B8); test: Inhibition of NLRP3 inflammasome activation in LPS-stimulated mouse peritoneal macrophage assessed as inhibition of caspase-1 secretion at 2 uM treated for 3 hrs followed by ATP addition measured after 30 mins by Western blot analysis relative to control; format: cell-based; settings: time 3.5 hrs
Peritoneal macrophage [19] = test: Effect on pro-caspase-1 expression in LPS-stimulated mouse peritoneal macrophage at 2 uM treated for 3 hrs followed by ATP addition measured after 30 mins by Western blot analysis; format: functional, cell-based; settings: time 3.5 hrs
Mus musculus [20] = test: Antiinflammatory activity in septic C57BL/6 mouse model assessed as reduction in LPS-induced inflammatory infiltration at 50 mg/kg, ip pretreated for 42 hrs followed by LPS injection measured after 6 hrs by H and E staining based analysis; format: functional, organism-based; settings: time 48.0 hrs
Mus musculus [21] = test: Antiinflammatory activity in septic C57BL/6 mouse model assessed as decrease in LPS-induced IL-1beta release at 50 mg/kg, ip pretreated for 42 hrs followed by LPS injection measured after 6 hrs by ELISA method; format: functional, organism-based; settings: time 48.0 hrs
Peritoneal macrophage [22] = test: Effect on NLRP3 expression in ATP-induced LPS-primed mouse peritoneal macrophage cells at 2 uM treated for 3 hrs followed by ATP addition measured after 30 mins by Western blot analysis; format: functional, cell-based; settings: time 3.5 hrs
Mus musculus [23] = test: Antiinflammatory activity in septic C57BL/6 mouse model assessed as reduction in LPS-induced alveolar wall thickening at 50 mg/kg, ip pretreated for 42 hrs followed by LPS injection measured after 6 hrs by H and E staining based analysis; format: functional, organism-based; settings: time 48.0 hrs
Peritoneal macrophage [24] = test: Effect on ASC expression in ATP-induced LPS-primed mouse peritoneal macrophage cells at 2 uM treated for 3 hrs followed by ATP addition measured after 30 mins by Western blot analysis; format: functional, cell-based; settings: time 3.5 hrs
Peritoneal macrophage [25] = test: Effect on pro-IL-1beta expression in ATP-induced LPS-primed mouse peritoneal macrophage cells at 2 uM treated for 3 hrs followed by ATP addition measured after 30 mins by Western blot analysis; format: functional, cell-based; settings: time 3.5 hrs
Mus musculus [26] = test: Antiinflammatory activity in septic C57BL/6 mouse model assessed as decrease in LPS-induced IL-6 release at 50 mg/kg, ip pretreated for 42 hrs followed by LPS injection measured after 6 hrs by ELISA method; format: functional, organism-based; settings: time 48.0 hrs
Peritoneal macrophage [27] = test: Effect on pro-IL-1beta expression in LPS-stimulated mouse peritoneal macrophage at 2 uM treated for 3 hrs followed by ATP addition measured after 30 mins by Western blot analysis; format: functional, cell-based; settings: time 3.5 hrs
[28] = molecular target: NACHT, LRR and PYD domains-containing protein 3 (Homo sapiens) (UniProt Q96P20); test: Inhibition of NLRP3 (unknown origin) degradation at 10 uM incubated for 5 hrs followed by heat treatment for 3 mins by CETSA assay; settings: time 5.03 hrs
Peritoneal macrophage [29] = test: Antiinflammatory activity against LPS-stimulated mouse peritoneal macrophage assessed as IL-1beta level at 2 uM treated for 3 hrs followed by ATP addition measured after 30 mins by ELISA method; format: functional, cell-based; settings: time 3.5 hrs
Peritoneal macrophage [30] = test: Antiinflammatory activity against LPS-stimulated mouse peritoneal macrophage assessed as IL-6 level at 2 uM treated for 3 hrs followed by ATP addition measured after 30 mins by ELISA method relative to control; format: functional; settings: time 3.5 hrs
Peritoneal macrophage [31] = test: Antiinflammatory activity against LPS-stimulated mouse peritoneal macrophage assessed as IL-6 level at 2 uM treated for 3 hrs followed by ATP addition measured after 30 mins by ELISA method; format: functional, cell-based; settings: time 3.5 hrs

Sequence of NACHT, LRR and PYD domains-containing protein 3 (Mus musculus) (Q8R4B8 whole entry, the tested form may be a part): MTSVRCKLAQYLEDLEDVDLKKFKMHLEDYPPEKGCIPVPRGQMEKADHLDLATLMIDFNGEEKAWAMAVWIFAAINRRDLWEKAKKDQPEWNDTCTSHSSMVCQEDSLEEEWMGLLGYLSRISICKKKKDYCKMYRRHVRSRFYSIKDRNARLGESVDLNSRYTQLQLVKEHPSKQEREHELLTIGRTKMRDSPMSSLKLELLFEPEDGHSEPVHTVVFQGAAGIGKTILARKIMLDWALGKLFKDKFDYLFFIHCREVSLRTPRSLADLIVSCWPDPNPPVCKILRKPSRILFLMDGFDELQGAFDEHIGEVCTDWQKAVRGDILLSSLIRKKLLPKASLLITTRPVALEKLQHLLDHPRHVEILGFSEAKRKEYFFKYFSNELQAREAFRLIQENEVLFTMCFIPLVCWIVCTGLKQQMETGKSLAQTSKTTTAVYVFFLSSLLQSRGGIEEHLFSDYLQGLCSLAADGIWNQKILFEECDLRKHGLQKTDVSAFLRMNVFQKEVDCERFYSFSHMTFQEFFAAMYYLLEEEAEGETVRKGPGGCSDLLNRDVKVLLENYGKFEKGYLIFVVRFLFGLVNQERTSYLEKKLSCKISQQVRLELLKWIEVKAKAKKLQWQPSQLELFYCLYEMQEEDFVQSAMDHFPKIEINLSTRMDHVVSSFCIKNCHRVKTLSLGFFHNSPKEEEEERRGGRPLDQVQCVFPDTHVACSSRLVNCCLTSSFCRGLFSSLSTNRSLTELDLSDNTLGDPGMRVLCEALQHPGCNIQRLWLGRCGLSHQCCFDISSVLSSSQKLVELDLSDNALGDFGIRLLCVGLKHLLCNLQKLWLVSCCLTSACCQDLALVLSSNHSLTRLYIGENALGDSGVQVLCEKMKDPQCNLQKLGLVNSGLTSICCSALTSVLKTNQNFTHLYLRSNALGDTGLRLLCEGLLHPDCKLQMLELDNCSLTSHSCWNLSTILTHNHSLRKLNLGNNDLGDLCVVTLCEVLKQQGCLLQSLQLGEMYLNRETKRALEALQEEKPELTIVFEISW
Sequence of NACHT, LRR and PYD domains-containing protein 3 (Homo sapiens) (Q96P20 whole entry, the tested form may be a part): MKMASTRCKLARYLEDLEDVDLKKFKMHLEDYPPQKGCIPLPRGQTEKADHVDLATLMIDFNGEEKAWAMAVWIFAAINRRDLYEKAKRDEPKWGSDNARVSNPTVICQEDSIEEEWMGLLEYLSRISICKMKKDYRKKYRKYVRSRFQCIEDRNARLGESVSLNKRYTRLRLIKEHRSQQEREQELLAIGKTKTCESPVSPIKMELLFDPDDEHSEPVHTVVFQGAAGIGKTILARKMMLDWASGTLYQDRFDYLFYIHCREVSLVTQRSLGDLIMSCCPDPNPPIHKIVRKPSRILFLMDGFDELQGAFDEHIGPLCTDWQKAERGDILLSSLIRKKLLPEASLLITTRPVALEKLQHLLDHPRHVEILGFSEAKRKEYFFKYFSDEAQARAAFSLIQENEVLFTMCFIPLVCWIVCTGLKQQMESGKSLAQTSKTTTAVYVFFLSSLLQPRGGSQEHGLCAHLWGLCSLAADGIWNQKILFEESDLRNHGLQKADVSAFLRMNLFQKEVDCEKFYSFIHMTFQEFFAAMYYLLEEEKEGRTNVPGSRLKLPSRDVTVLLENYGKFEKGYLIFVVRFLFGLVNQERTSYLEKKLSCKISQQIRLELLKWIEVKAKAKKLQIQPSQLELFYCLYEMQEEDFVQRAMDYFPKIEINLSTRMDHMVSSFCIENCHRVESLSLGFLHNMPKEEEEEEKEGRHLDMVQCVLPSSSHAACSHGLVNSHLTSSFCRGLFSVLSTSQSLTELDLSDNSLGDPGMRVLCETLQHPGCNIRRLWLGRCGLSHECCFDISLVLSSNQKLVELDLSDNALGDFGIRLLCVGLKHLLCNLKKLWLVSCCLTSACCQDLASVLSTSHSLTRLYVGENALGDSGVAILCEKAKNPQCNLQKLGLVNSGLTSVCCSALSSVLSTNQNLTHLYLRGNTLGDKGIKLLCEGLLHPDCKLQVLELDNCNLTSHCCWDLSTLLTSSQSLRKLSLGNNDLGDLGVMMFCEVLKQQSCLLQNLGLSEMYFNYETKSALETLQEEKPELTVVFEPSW
Sequence of NACHT, LRR and PYD domains-containing protein 3 (Q8R4B8 whole entry, the tested form may be a part): as the sequence (Q8R4B8 whole entry, the tested form may be a part) above

With `Cc1cccc2c3c(ccc12)-c1oc2c(c1C(=O)C3=O)CCN(CCCN1CCOCC1)C2` [listing 1 of 2 here] the Kd [1] was 5.87 µM, the IC50 (Peritoneal macrophage [2]) was 0.131 µM and the Activity (Peritoneal macrophage [3]) was 97%. The half-life at 20 µM [4] was 3.04 h, the half-life at 20 µM [5] was 14.4 h and the Activity (Peritoneal macrophage [6]) was “Non-Toxic”. It also gave a solubility [7] of 0.03 µg/mL (≈ 0.0675 µM), a microsomal CLint at 20 µM [8] of 1.6 µL/min/mg and a microsomal CLint at 20 µM [9] of 7.6 µL/min/mg. It also gave an Activity (Peritoneal macrophage [10]) of 41%.
With `Cc1cccc2c3c(ccc12)-c1oc2c(c1C(=O)C3=O)CCN([C@H](CO)CCCO)C2` the Activity (Peritoneal macrophage [11]) was “inactive”, the inhibition (Peritoneal macrophage [12]) was “Active” and the inhibition [13] was “Active”. The inhibition [14] was 100%, the Activity (Mus musculus [15]) was “Active” and the inhibition [16] was “Active”. The inhibition [17] was “Active”, the inhibition [18] was 100% and the Activity (Peritoneal macrophage [19]) was “inactive”. The Activity (Mus musculus [20]) was “Active”, the Activity (Mus musculus [21]) was “Active” and the Activity (Peritoneal macrophage [22]) was “inactive”. For the same molecule, the Activity (Mus musculus [23]) was “Active”, the Activity (Peritoneal macrophage [24]) was “inactive” and the Activity (Peritoneal macrophage [25]) was “inactive”. The Activity (Mus musculus [26]) was “Active” and the Activity (Peritoneal macrophage [27]) was “inactive”.
In the case of `Cc1cccc2c3c(ccc12)-c1oc2c(c1C(=O)C3=O)CCN(CCCN1CCOCC1)C2` [listing 2 of 2 here], the Activity (Peritoneal macrophage [11]) is reported as “inactive”, the inhibition (Peritoneal macrophage [12]) is reported as “Active” and the inhibition [13] is reported as “Active”. For the same molecule, the inhibition [14] was 100%, the Activity (Mus musculus [15]) was “Active” and the inhibition [16] was “Active”. The inhibition [28] was “Active”, the inhibition [17] was “Active” and the inhibition [18] was 100%. For the same molecule, the Activity (Peritoneal macrophage [19]) was “inactive”, the Activity (Mus musculus [20]) was “Active” and the Activity (Mus musculus [21]) was “Active”. For the same molecule, the Activity (Peritoneal macrophage [22]) was “inactive”, the Activity (Mus musculus [23]) was “Active” and the Activity (Peritoneal macrophage [24]) was “inactive”. The Activity (Peritoneal macrophage [25]) was “inactive”, the Activity (Mus musculus [26]) was “Active” and the Activity (Peritoneal macrophage [27]) was “inactive”.
For `Cc1coc2c1C(=O)C(=O)c1c-2ccc2c1CCCC2(C)C` [TANSHINONE IIA], the Activity (Peritoneal macrophage [29]) was “inactive”, the Activity (Peritoneal macrophage [30]) was 16% and the Activity (Peritoneal macrophage [6]) was “Non-Toxic”. For the same molecule, the Activity (Peritoneal macrophage [10]) was 19%.
For `Cc1cccc2c3c(ccc12)-c1oc2c(c1C(=O)C3=O)CCN(CCO)C2`, the Activity (Peritoneal macrophage [11]) was “inactive”, the inhibition (Peritoneal macrophage [12]) was “Active” and the inhibition [13] was “Active”. The inhibition [14] was 100%, the Activity (Mus musculus [15]) was “Active” and the inhibition [16] was “Active”. For the same molecule, the inhibition [17] was “Active”, the inhibition [18] was 100% and the Activity (Peritoneal macrophage [19]) was “inactive”. The Activity (Mus musculus [20]) was “Active”, the Activity (Peritoneal macrophage [31]) was “inactive” and the Activity (Mus musculus [21]) was “Active”. For the same molecule, the Activity (Peritoneal macrophage [22]) was “inactive”, the Activity (Mus musculus [23]) was “Active” and the Activity (Peritoneal macrophage [24]) was “inactive”. For the same molecule, the Activity (Peritoneal macrophage [25]) was “inactive”, the Activity (Mus musculus [26]) was “Active” and the Activity (Peritoneal macrophage [27]) was “inactive”.

Source: ChEMBL document CHEMBL5380810, “Scaffold Hybrid of the Natural Product Tanshinone I with Piperidine for the Discovery of a Potent NLRP3 Inflammasome Inhibitor” (J Med Chem, 2023)
